# Measurements: patent US10913727B2, “Modulators of the integrated stress pathway” (Calico Life Sciences LLC, priority 2016, dated 2021)
# Test system: HEK293T cells carrying the ATF4 luciferase reporter
# Experiment: ATF4-Luc assay, in vitro model of Vanishing Cell White Matter Disease (VWMD)
# Format: cell-based
# Conditions: Homo sapiens, HEK-293T, 1 μg/mL tunicamycin, 7 hours, One Glo luminescence
# Procedure, shortened: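 Reporter cells were stably generated by retroviral transduction and puromycin selection, then seeded at 30,000 cells/well. Next day, cells received 1 μg/mL tunicamycin with 200 nM test compound for 7 h, and luciferase luminescence was read with a one-step reagent. Values reported as EC50.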
row,Compound,EC50 [nM]
1,"O=C(COc1ccc(Cl)c(F)c1)NC12CC(Nc3nccc(-c4ccccc4)n3)(C1)C2 [Compound 363, 2-(4-chloro-3-fluorophenoxy)-N-{3-[(4-phenylpyrimidin-2-yl)amino]bicyclo[1.1.1]pentan-1-yl}acetamide]",1000 to 2000
2,"Cc1cc(C(=O)NC23CC(NC(=O)COc4ccc(Cl)c(F)c4)(C2)C3)nn1-c1ccc(Cl)cc1 [Compound 112, N-{3-[2-(4-chloro-3-fluorophenoxy)acetamido]bicyclo[1.1.1]pentan-1-yl}-1-(4-chlorophenyl)-5-methyl-1H-pyrazole-3-carboxamide]",250 to 1000
3,"Cc1ncc(C(=O)NC23CC(NC(=O)COc4ccc(Cl)c(F)c4)(C2)C3)s1 [Compound 285, N-{3-[2-(4-chloro-3-fluorophenoxy)acetamido]bicyclo[1.1.1]pentan-1-yl}-2-methyl-1,3-thiazole-5-carboxamide]",50 to 250
4,"O=C(COc1ccc(Cl)c(F)c1)NC12CC(NC(=O)c3ccccc3-n3cncn3)(C1)C2 [Compound 862, N-{3-[2-(4-chloro-3-fluorophenoxy)acetamido]bicyclo[1.1.1]pentan-1-yl}-2-(1H-1,2,4-triazol-1-yl)benzamide]",> 2000
5,"Cc1cnccc1C(=O)NC12CC(NC(=O)COc3ccc(Cl)c(F)c3)(C1)C2 [Compound 814, N-{3-[2-(4-chloro-3-fluorophenoxy)acetamido]bicyclo[1.1.1]pentan-1-yl}-3-methylpyridine-4-carboxamide]",> 2000
6,"O=C(COc1ccc(Cl)c(F)c1)NC12CC(Nc3nccn4cccc34)(C1)C2 [Compound 434, 2-(4-chloro-3-fluorophenoxy)-N-{3-[(pyrrolo[1,2-a]pyrazin-1-yl)amino]bicyclo[1.1.1]pentan-1-yl}acetamide]",250 to 1000
7,"CC(C)c1nnsc1C(=O)NC12CC(NC(=O)COc3ccc(Cl)c(F)c3)(C1)C2 [Compound 893, N-{3-[2-(4-chloro-3-fluorophenoxy)acetamido]bicyclo[1.1.1]pentan-1-yl}-4-(propan-2-yl)-1,2,3-thiadiazole-5-carboxamide]",1000 to 2000
8,"O=C(COc1ccc(C(F)F)c(F)c1)NC12CC(NC(=O)c3cnc(C(F)F)cn3)(C1)C2 [Compound 475, 5-(difluoromethyl)-N-(3-{2-[4-(difluoromethyl)-3-fluorophenoxy]acetamido}bicyclo[1.1.1]pentan-1-yl)pyrazine-2-carboxamide]",50 to 250
9,"Cc1ccc(C(=O)NC23CCC(NC(=O)COc4ccc(Cl)c(F)c4)(CC2)CC3O)nc1 (stereo not drawn) [Compound 169, N-{4-[2-(4-chloro-3-fluorophenoxy)acetamido]-2-hydroxybicyclo[2.2.2]octan-1-yl}-5-methylpyridine-2-carboxamide]",50 to 250
10,"Cc1cc(C(=O)NC23CC(NC(=O)COc4ccc5c(c4)OC(F)(F)O5)(C2)C3)on1 [Compound 377, N-(3-{2-[(2,2-difluoro-2H-1,3-benzodioxol-5-yl)oxy]acetamido}bicyclo[1.1.1]pentan-1-yl)-3-methyl-1,2-oxazole-5-carboxamide]",250 to 1000
11,"Cc1cc(C)n2nc(C(=O)NC34CCC(NC(=O)COc5ccc(Cl)c(F)c5)(CC3)[C@@H](O)C4)nc2n1 [Compound 750, N-{(3S)-4-[2-(4-chloro-3-fluorophenoxy)acetamido]-3-hydroxybicyclo[2.2.2]octan-1-yl}-5,7-dimethyl[1,2,4]triazolo[1,5-a]pyrimidine-2-carboxamide]",> 2000
12,"O=C(COc1ccc(Cl)c(F)c1)NC12CC(Nc3ccn4nccc4n3)(C1)C2 [Compound 609, 2-(4-chloro-3-fluorophenoxy)-N-{3-[(pyrazolo[1,5-a]pyrimidin-5-yl)amino]bicyclo[1.1.1]pentan-1-yl}acetamide]",1000 to 2000
13,"CC(C)Oc1ccc(C(=O)NC23CC(NC(=O)COc4ccc(Cl)cc4)(C2)C3)nc1 [Compound 185, N-{3-[2-(4-chlorophenoxy)acetamido]bicyclo[1.1.1]pentan-1-yl}-5-[(propan-2-yl)oxy]pyridine-2-carboxamide]",250 to 1000
14,"COCC(=O)Nc1ccccc1C(=O)NC12CC(NC(=O)COc3ccc(Cl)c(F)c3)(C1)C2 [Compound 887, N-{3-[2-(4-chloro-3-fluorophenoxy)acetamido]bicyclo[1.1.1]pentan-1-yl}-2-(2-methoxyacetamido)benzamide]",250 to 1000
15,"O=C(COc1ccc(Cl)c(F)c1)NC12CCC(NC(=O)c3cccc(F)c3)(CC1)C[C@@H]2O [Compound 681, N-{(3S)-4-[2-(4-chloro-3-fluorophenoxy)acetamido]-3-hydroxybicyclo[2.2.2]octan-1-yl}-3-fluorobenzamide]",< 50
16,"Cc1nnc(NC23CC(NC(=O)COc4ccc(Cl)c(F)c4)(C2)C3)o1 [Compound 393, 2-(4-chloro-3-fluorophenoxy)-N-{3-[(5-methyl-1,3,4-oxadiazol-2-yl)amino]bicyclo[1.1.1]pentan-1-yl}acetamide]",> 2000
17,"O=C(COc1ccc(Cl)c(F)c1)NC12CC(NC(=O)c3n[nH]c4ccccc34)(C1)C2 [Compound 318, N-{3-[2-(4-chloro-3-fluorophenoxy)acetamido]bicyclo[1.1.1]pentan-1-yl}-1H-indazole-3-carboxamide]",> 2000

row,Compound,EC50 [nM]
1,"Cc1occc1C(=O)NC12CC(NC(=O)COc3ccc(Cl)c(F)c3)(C1)C2 [Compound 556, N-{3-[2-(4-chloro-3-fluorophenoxy)acetamido]bicyclo[1.1.1]pentan-1-yl}-2-methylfuran-3-carboxamide]",1000 to 2000
2,"COc1cccc(C(=O)NC23CCC(NC(=O)COc4ccc(Cl)c(F)c4)(CC2)C(O)C3)n1 (stereo not drawn) [Compound 923, N-{4-[2-(4-chloro-3-fluorophenoxy)acetamido]-3-hydroxybicyclo[2.2.2]octan-1-yl}-6-methoxypyridine-2-carboxamide]",50 to 250
3,"Cc1nn(C)cc1C(=O)NC12CC(NC(=O)COc3ccc(Cl)c(F)c3)(C1)C2 [Compound 846, N-{3-[2-(4-chloro-3-fluorophenoxy)acetamido]bicyclo[1.1.1]pentan-1-yl}-1,3-dimethyl-1H-pyrazole-4-carboxamide]",1000 to 2000
4,"O=C(COc1ccc(Cl)c(F)c1)NC12CC(NC(=O)c3ccc(C4=CCOCC4)nc3)(C1)C2 [Compound 155, N-{3-[2-(4-chloro-3-fluorophenoxy)acetamido]bicyclo[1.1.1]pentan-1-yl}-6-(3,6-dihydro-2H-pyran-4-yl)pyridine-3-carboxamide]",1000 to 2000
5,"O=C(COc1ccc(Cl)c(F)c1)NC12CC(NC(=O)c3cc4n(n3)CCC4)(C1)C2 [Compound 259, N-{3-[2-(4-chloro-3-fluorophenoxy)acetamido]bicyclo[1.1.1]pentan-1-yl}-5,6-dihydro-4H-pyrrolo[1,2-b]pyrazole-2-carboxamide]",250 to 1000
6,"O=C(COc1ccc2c(c1)OC(F)(F)O2)NC12CC(NC(=O)c3cnc(C4CC4)o3)(C1)C2 [Compound 717, 2-cyclopropyl-N-(3-{2-[(2,2-difluoro-2H-1,3-benzodioxol-5-yl)oxy]acetamido}bicyclo[1.1.1]pentan-1-yl)-1,3-oxazole-5-carboxamide]",250 to 1000
7,"O=C(COc1ccc(Cl)c(F)c1)NC12CCC(NC(=O)c3onc4ccccc34)(CC1)CC2O (stereo not drawn) [Compound 328, N-{4-[2-(4-chloro-3-fluorophenoxy)acetamido]-3-hydroxybicyclo[2.2.2]octan-1-yl}-2,1-benzoxazole-3-carboxamide]",1000 to 2000
8,"O=C(COc1ccc(Cl)c(F)c1)NC12CC(NC(=O)c3cscn3)(C1)C2 [Compound 308, N-{3-[2-(4-chloro-3-fluorophenoxy)acetamido]bicyclo[1.1.1]pentan-1-yl}-1,3-thiazole-4-carboxamide]",250 to 1000
9,"O=C(COc1ccc(Cl)c(F)c1)NC12CCC(NC(=O)c3csc(C4CC4)n3)(CC1)C[C@@H]2O [Compound 751, N-{(3S)-4-[2-(4-chloro-3-fluorophenoxy)acetamido]-3-hydroxybicyclo[2.2.2]octan-1-yl}-2-cyclopropyl-1,3-thiazole-4-carboxamide]",< 50
10,"O=C(COc1ccc(Cl)c(F)c1)NC12CC(NC(=O)c3cccc(-n4cnnc4)c3)(C1)C2 [Compound 902, N-{3-[2-(4-chloro-3-fluorophenoxy)acetamido]bicyclo[1.1.1]pentan-1-yl}-3-(4H-1,2,4-triazol-4-yl)benzamide]",> 2000
11,"O=C(COc1ccc(Cl)c(F)c1)NC12CCC(NC(=O)c3cncs3)(CC1)C(O)C2 (stereo not drawn) [Compound 213, N-{4-[2-(4-chloro-3-fluorophenoxy)acetamido]-2-hydroxybicyclo[2.2.2]octan-1-yl}-1,3-thiazole-5-carboxamide]",250 to 1000
12,"O=C(COc1ccc(Cl)c(F)c1)NC12CC(NC(=O)c3cc(C(F)(F)F)no3)(C1)C2 [Compound 380, N-{3-[2-(4-chloro-3-fluorophenoxy)acetamido]bicyclo[1.1.1]pentan-1-yl}-3-(trifluoromethyl)-1,2-oxazole-5-carboxamide]",250 to 1000
13,"CC(C)(C)OC(=O)NCc1ccnc(C(=O)NC23CC(NC(=O)COc4ccc(Cl)c(F)c4)(C2)C3)c1 [Compound 192, tert-butyl {[2-({3-[2-(4-chloro-3-fluorophenoxy)acetamido]bicyclo[1.1.1]pentan-1-yl}carbamoyl)pyridin-4-yl]methyl}carbamate]",250 to 1000
14,"Cc1cccn2cc(C(=O)NC34CCC(NC(=O)COc5ccc(Cl)c(F)c5)(CC3)C(O)C4)nc12 (stereo not drawn) [Compound 599, N-{4-[2-(4-chloro-3-fluorophenoxy)acetamido]-3-hydroxybicyclo[2.2.2]octan-1-yl}-8-methylimidazo[1,2-a]pyridine-2-carboxamide]",250 to 1000
15,"CN(C)c1ccccc1C(=O)NC12CC(NC(=O)COc3ccc(Cl)c(F)c3)(C1)C2 [Compound 532, N-{3-[2-(4-chloro-3-fluorophenoxy)acetamido]bicyclo[1.1.1]pentan-1-yl}-2-(dimethylamino)benzamide]",> 2000
16,"O=C(COc1ccc(C(F)(F)F)nc1)NC12CC(NC(=O)c3cnc(C(F)F)cn3)(C1)C2 [Compound 455, 5-(difluoromethyl)-N-[3-(2-{[6-(trifluoromethyl)pyridin-3-yl]oxy}acetamido)bicyclo[1.1.1]pentan-1-yl]pyrazine-2-carboxamide]",> 2000
